Target: T1, VgEcR and RXR heterodimeric receptor (pVgRXR) with pIND/luc in CHO cells (Drosophila melanogaster, UniProt P34021, E282G/G283S/G286V)
T1 construct: host or cells: CHO cells (ATCC CCL-61), transiently transfected or stably transformed with pVgRXR
T1 sequence (P34021 1-878 E282G/G283S/G286V): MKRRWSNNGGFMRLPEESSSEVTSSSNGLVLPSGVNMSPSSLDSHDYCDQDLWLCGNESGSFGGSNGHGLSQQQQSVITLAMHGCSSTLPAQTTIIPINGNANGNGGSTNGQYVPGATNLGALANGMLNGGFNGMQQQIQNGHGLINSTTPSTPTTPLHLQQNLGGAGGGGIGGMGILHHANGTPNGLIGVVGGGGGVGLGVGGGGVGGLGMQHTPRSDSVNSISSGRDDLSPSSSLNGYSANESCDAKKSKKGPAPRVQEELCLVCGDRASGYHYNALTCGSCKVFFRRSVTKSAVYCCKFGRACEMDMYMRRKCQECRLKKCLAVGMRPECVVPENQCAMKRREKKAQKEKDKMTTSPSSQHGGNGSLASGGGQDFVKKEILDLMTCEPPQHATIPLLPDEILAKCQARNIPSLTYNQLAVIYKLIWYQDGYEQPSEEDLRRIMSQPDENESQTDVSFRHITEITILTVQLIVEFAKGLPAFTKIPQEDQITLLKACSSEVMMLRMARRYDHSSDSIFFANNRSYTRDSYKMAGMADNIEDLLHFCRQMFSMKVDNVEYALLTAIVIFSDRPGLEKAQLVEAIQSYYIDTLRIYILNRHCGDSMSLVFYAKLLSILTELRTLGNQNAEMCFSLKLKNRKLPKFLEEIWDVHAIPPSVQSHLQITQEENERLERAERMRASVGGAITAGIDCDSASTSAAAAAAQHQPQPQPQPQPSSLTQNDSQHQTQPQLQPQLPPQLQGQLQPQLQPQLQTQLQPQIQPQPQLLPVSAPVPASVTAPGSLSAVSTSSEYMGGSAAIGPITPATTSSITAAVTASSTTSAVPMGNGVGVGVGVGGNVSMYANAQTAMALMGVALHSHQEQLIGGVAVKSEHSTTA
T1 sequence (P19793 1-462 partner): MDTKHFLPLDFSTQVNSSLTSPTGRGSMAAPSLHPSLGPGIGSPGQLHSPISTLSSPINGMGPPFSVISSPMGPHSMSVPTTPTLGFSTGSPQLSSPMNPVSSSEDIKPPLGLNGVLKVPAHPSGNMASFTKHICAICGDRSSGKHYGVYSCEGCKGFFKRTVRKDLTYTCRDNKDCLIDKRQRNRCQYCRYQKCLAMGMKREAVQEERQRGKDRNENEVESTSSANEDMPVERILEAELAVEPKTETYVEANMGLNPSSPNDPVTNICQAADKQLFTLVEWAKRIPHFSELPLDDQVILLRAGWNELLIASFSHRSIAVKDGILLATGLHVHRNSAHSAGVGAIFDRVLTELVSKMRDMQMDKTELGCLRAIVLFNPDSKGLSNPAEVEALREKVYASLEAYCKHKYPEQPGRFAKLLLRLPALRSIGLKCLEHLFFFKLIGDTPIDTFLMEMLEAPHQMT
Assay: Luciferase gene activation in transiently transfected CHO cells
Format: cell-based
Conditions: ligand 10 μM; for Luciferase activity: average of duplicate samples, no ligand = 42; for Induction Ratio (RLU in presence and absence of the ligand): luciferase
Description: pVgRXR (Invitrogen Corp., Carlsbad, Calif.) is an […] plasmid that expresses both VgEcR and RXR to form a modified heterodimeric nuclear receptor (see No, D., et. al., (1996) Proc. Natl. Acad. Sci. USA, 93, 3346-3351). The ecdysone receptor (VgEcR) is derived from the natural Drosophila ecdysone receptor and modified to contain the VP16 transactivation domain (see Cress, W. D., and Triezenberg, S. J. (1991), Science 251, 87-90; Sadowski, I., et. al (1988) Nature 335, 563-564; Triezenberg, S. J et. al., (1988), Genes Dev 2, 718-729; Triezenberg, S. J., et. al., (1988), Genes Dev 2, 730-742). RXR as the mammalian homologue of USP (ultraspiracle), the natural partner to the Drosophila ecdysone receptor (see Yao, T. -P., et. al., (1993), Nature 366, 476-479, Yao, T. -P., et. al., (1992), Cell 71, 63-72). The P-box region of the VgEcR DNA binding domain was modified to recognize the hybrid ecdysone response element that consists of one half-site from the gluccorticoid response element (see Umesono, K., and Evans, R. M. (1989), Cell 57, 1139-1146) and one half-site from the natural ecdysone response element. This hybrid response element reduces any possible interaction with the farsenoid X receptor that may bind the natural ecdysone responsive element (EcRE). The cytomegalovirus enhancer-promoter drives expression of VgEcR, and the Rous sarcoma virus promoter drives expression of RXR. The vector pIND (Invitrogen Corp) is a 5024 bp vector based on pcDNA3.1. It contains five hybrid E/GREs recognized by the modified ecdysone receptor expressed from pVgRXR and a minimal heat shock promoter (see Yao, T. P., et. al., (1993), Nature, 366, 476-479). pIND/lacZ (Invitrogen Crop.) is a 8170 bp plasmid that contains the β-galactosidase gene as a reporter enzyme. Cotransfection of pIND/lacZ and pVgRXR results in the induction of β-galactosidase expression upon addition of ecdysone agonists such as muristerone A. The reporter plasmid pIND/luc was constructed by subcloning the firefly luciferase gene from pGL3 (Promega/E1741) as a Nhe I-BamHI fragment into pIND, also digested with Nhe I and BamHI.
CHO cells (ATCC #CCL-61) were maintained by F-12 Nutrient mixture (Ham's media) (Gibco/BRL, 11765-054) supplemented with 10% fetal bovine serum, (FBS, complete medium; Gibco/BRL, 16000-036). These cells were maintained at 37° C. in 5% CO2 in 95% atmospheric air.
The CHO cells were seeded into 12-well tissue culture plates at a concentration of 0.5×10^5 cells per ml per well. The lipid Pfx-8 (Invitrogen, T930-18) was used to transiently transfect the ecdysone inducible expression system (Invitrogen catalog number K1000-01). The ecdysone inducible expression system consists of pVgRXR, encoding the receptor subunits, and pIND/lacZ or pIND/luc, containing the response element and a reporter gene encoding β-galactosidase or luciferase respectively. Twenty-four hours after seeding cells, the lipid/DNA solution was prepared by 0.5 mg/ml of VgRXR and 0.5 mg/ml pIND/lacZ or pIND/luc DNAs in sterile water. Thirty-six μl of Pfx-8 was diluted in a sterile 17×100 mm polystyrene tube containing 1.5 ml Opti-MEM medium (Gibco/BRL, 31985). Six μl of the plasmid DNA stock was mixed with 1.5 ml of Opti-MEM medium in another polystyrene tube. The DNA and the lipid solutions were combined to make 3 ml of transfection solution (enough for one set of triplicate samples). Cells were washed with phosphate buffered solution (PBS; Gibco/BRL, 14190-144) three times by aspirating medium from the cells. One ml transfection solution was added per well. Cells were incubated for four hours, and the transfection medium replaced with the same volume of complete medium. Cells were incubated for an additional 20 hours.
Stock solutions (10^−2 M) were prepared for muristerone A and the non-steroidal ligands of the present invention in ethanol and acetone respectively, and stored at −20° C. […]

Compound	Luciferase activity [RLU]	Induction Ratio (RLU in presence and absence of the ligand)
CCc1ccc(C(=O)NN(C(=O)c2cc(C)cc(C)c2)C(C)(C)C)cc1 [CE-1, N-(4-ethylbenzoyl)-N′-(3,5-dimethylbenzoyl)-N′-tert-butyl-hydrazine, reference compound]	89	2
CC(C)(C)N(NC(=O)c1ccccc1)C(=O)c1ccccc1 [CE-2, 1,2-dibenzoyl-1-tert-butyl-hydrazine, reference compound]	36	1
CC(C)CC[C@@H](O)[C@](C)(O)[C@H]1CC[C@@]2(O)C3=CC(=O)[C@]4(O)C[C@@H](O)[C@@H](O)C[C@]4(C)[C@H]3[C@H](O)C[C@]12C [CE-3, muristerone A, reference compound]	316	8
CC(C)CC[C@@H](O)[C@](C)(O)[C@H]1CC[C@@]2(O)C3=CC(=O)[C@@H]4C[C@@H](O)[C@@H](O)C[C@]4(C)[C@H]3CC[C@]12C [CE-4, ponasterone A, reference compound]	418	10
CCc1c(OC)cccc1C(=O)NN(C(=O)c1cccc(OC)c1)C(C)(C)C [Ligand 1]	275	7
Cc1cc(C)cc(C(=O)N(NC(=O)c2ccc3c(c2C)OCCO3)C(C)(C)C)c1 [Ligand 2]	204	5
COc1cccc(C(=O)NN(C(=O)c2cc(C)cc(C)c2)C(C)(C)C)c1C [Ligand 3]	324	8
CCc1c(OC)cccc1C(=O)NN(C(=O)c1cc(F)cc(F)c1)C(C)(C)C [Ligand 4]	251	6
CCc1c(OC)cccc1C(=O)NN(C(=O)c1cc(C)cc(C)c1)C(C)(C)C [Ligand 5]	313	8
CCOc1cccc(C(=O)NN(C(=O)c2cc(C)cc(C)c2)C(C)(C)C)c1CC [Ligand 12]	305	7
CCc1c(OC)cccc1C(=O)NN(C(=O)c1cc(Cl)cc(Cl)c1)C(C)(C)C [Ligand 13]	226	5

Source: US20010044151A1, “Ligands for modulating the expression of exogenous genes via an ecdysone receptor complex” (priority 1998, published 2001)
